{
  "source": "patent US12661368B2",
  "about": "“Maribavir isomers, compositions, methods of making and methods of using” (Takeda Pharmaceutical Company Limited, priority 2010, dated 2026)",
  "origin": "cited, not measured here",
  "key": {"cytomegalovirus (CMV) [1]": {"tested_on": "cytomegalovirus (CMV)", "details": "Phase 2, 200 Study"}, "cytomegalovirus (CMV) [2]": {"tested_on": "cytomegalovirus (CMV)", "details": "Phase 3, 300 Study, allogeneic SCT patients, prophylaxis"}},
  "data": [
    {"smiles": "CC(C)Nc1nc2cc(Cl)c(Cl)cc2n1[C@H]1O[C@@H](CO)[C@H](O)[C@@H]1O", "note": "[maribavir, 5,6-dichloro-2-(isopropylamino)-1-(β-L-ribofuranosyl)-1H-benzimidazole]", "values": [
      {"measurement": "tolerability profile", "setting": "cytomegalovirus (CMV) [1]; administration for up to 12 weeks, SCT patients", "result": "favorable tolerability profile"},
      {"measurement": "rate of reactivation of CMV in recipients of allogeneic stem cell (bone marrow) transplants", "setting": "cytomegalovirus (CMV) [1]; prophylaxis, fasted dosing protocol, preliminary results", "result": "significant reduction"},
      {"measurement": "key secondary endpoints of the study", "setting": "cytomegalovirus (CMV) [2]", "result": "failed to meet its key secondary endpoints"},
      {"measurement": "reducing the rate of CMV disease, maribavir versus placebo (primary analysis)", "setting": "cytomegalovirus (CMV) [2]; dosing fasted or fed", "result": "no statistically significant difference"}
    ]}
  ]
}
